Measurements: patent US20050123479A1, “Therapeutic properties of oils” (priority 2002, published 2005)

Test system: human T lymphocytes
Experiment: PHA-induced lymphocyte proliferation (3H-TdR incorporation)
Format: cell-based
Settings: compared with 18:1ω9, 18:0 and 18:2; preliminary studies (FIG. 24)
Protocol: Lymphocyte proliferation was measured by a semi-automated microtechnique (12). Human mononuclear cells (2×10^5) were seeded into u-bottomed wells of a micro-titre plate (50 μl) and treated with 500 of the ethanol emu oil fraction. After 30 min incubation, […] PHA was added to stimulate the T lymphocytes. The cells were incubated for 72 h at 37° C. in an atmosphere of 5% CO2-air and high humidity. At 6 h prior to harvest, the cultures were pulsed with 1 μCi of ^3H-TdR. The cells were harvested and the amount of radioactivity incorporated measured in a liquid scintillation counter.
Makin emu oil was subjected to solubility in ethanol. This ethanol soluble oil fraction was then tested for ability to depress proliferation of mitogen stimulated human lymphocytes. The mononuclear cells were isolated from peripheral blood and pretreated for 30 min with dilutions of the fraction and then challenged with phytohaemagglutinin (PHA). Proliferation of lymphocytes was measured after 48 hours using ^3H-TdR incorporation as a marker for DNA synthesis.

For CCCCC/C=C\C/C=C\CCCCCCCC(=O)O [18:2ω6, Linoleic acid (18:2ω6)], the “inhibition of T lymphocyte and mononuclear cell responses by fatty acids” value was “strongly inhibitory”.
